# Laboratory results taken from patent US20240324593A1, “OCTENIDINE COMPOSITIONS AND METHODS OF USE THEREOF” (Solventum Intellectual Properties Company, priority 2021, published 2024).
# Structures can show the parent of a compound that is named as a salt.
# Assays:
# [1] = Antimicrobial Efficiency Test, other antimicrobials with carnitine enhancers (Table 5); type: cell-based; details: with versus without carnitine enhancer
# Method: Solutions of water, carnitine enhancer, and various other antimicrobials (i.e., chlorhexidine gluconate, benzalkonium chloride, polyhexamethylene biguanide) were prepared according to the procedure described immediately above.
# Ex vivo porcine mucosa is transported to laboratory on ice pack and then trimmed and transferred in to RPMI 1640+2% PS media. A 5 mm biopsy punch is used to cut samples for assay. Remove most of the remaining muscle tissue with a fresh scalpel blade. Rinse 3× with 10±0.5 ml RPMI no ABX, no FCS. Transfer to incubator. Set up a 6 well plate with 1.5±0.2 mL RPMI (no ABX, no FCS) in each well and a 0.4 μm transwell insert. Transfer tissue explants mucosal side up to the insert (3 explants/well).
# Passage overnight culture 1:10 into THB and return to shaking incubator for 2-3 hours. Remove 1 mL of passage culture from test tube and place in sterile microcentrifuge tube. Centrifuge (1±0.5 min at max speed) to pellet. Wash pellet with 1±0.1 mL RPMI, no ABX, no FCS. Centrifuge to pellet and re-suspend in 1±0.1 mL fresh RPMI. Check OD 600 to determine bacterial density and dilute as necessary to achieve ˜1E8 CFU/ml. Add bacteria: 2±1 μl per explant and return to incubator to infect 4±0.15 h.
# Apply 50± μl of formulation per explant (mucosa side). Incubate at 37±2° C. for 24±0.5 h.
# Remove tissue from transwells and place in appropriate neutralizer. Sonicate samples and vortex (30±5 second vortex, 2±0.1 minutes sonicate, and then 30±5 second vortex). Plate on Mannitol Salt Agar selective agar or Blood Agar at appropriate dilution and store dilutions at 4±2° C. The following day count plates and if TNTC, re-plate at higher dilution.
# [2] = background statement; cited from earlier work
# [3] = background statement; cited from earlier work; remark: listed apart in the source
# [4] = background statement; cited from earlier work; remark: listed apart in the source
# [5] = background statement; cited from earlier work; remark: listed apart in the source
# [6] = Homogeneity of the composition / precipitation of octenidine; type: physicochemical; details: aqueous composition of octenidine hydrochloride with enhancer
# Method: Water and the carnitine enhancer (i.e., carnitine inner salt, carnitine tartrate tartaric acid, carnitine fumarate, or acetyl carnitine) to a 20 mL glass vial mixed with magnetic stirring. Octenidine hydrochloride (10% solution in 50:50 weight percentage methanol:water) was further added in the amount described in the tables below. The pH was adjusted using 1N HCL or NaOH. Glycerol (3 g) and Natrosol 250 HHX […] were added to a flask and mixed with a DAC 400 FVZ SPEEDMIXER dual asymmetric centrifuge mixer (from Flacktek, Inc Landrum, S.C.) at 2500 rpm for 30 seconds. The glycerol and Natrosol 250 HHX (1.3 g) were combined with the enhancer solution in a 40 gms Flack Tec cup and mixed for an additional 30 seconds at 2500 rpm. The resulting solutions were homogenous. Refer to Examples 1-36 below (total weight percentages of octenidine hydrochloride and carnitine enhancer within composition are provided in tables; glycerol about 8-9 wt %; Natrosol 250 HHX about 2-3 wt %; and water makes up the difference). The solutions of Examples 1-27 below were subjected to antimicrobial testing according to the method below.
# As described above, aqueous compositions including only octenidine hydrochloride and a respective enhancer were also prepared (i.e., absent glycerol and Natrosol 250 HHX), similar to the formulations described in Tables 1-5. All compositions formed homogenous solutions. […]
compound,measurement,setting,value
benzalkonium chloride,antimicrobial activity in the presence of carnitine enhancers (in words),[1],No effect
N=C(NCCCCCCNC(=N)NC(=N)Nc1ccc(Cl)cc1)NC(=N)Nc1ccc(Cl)cc1.O=C(O)[C@H](O)[C@@H](O)[C@H](O)[C@H](O)CO.O=C(O)[C@H](O)[C@@H](O)[C@H](O)[C@H](O)CO [chlorhexidine gluconate],antimicrobial activity in the presence of carnitine enhancers (in words),[1],performed better in the absence of carnitine enhancer
polyhexamethylene biguanide [polyhexamethylene biguanidine],antimicrobial activity in the presence of carnitine enhancers (in words),[1],performed better in the absence of carnitine enhancer
"CCCCCCCCN=c1ccn(CCCCCCCCCCn2ccc(=NCCCCCCCC)cc2)cc1 [octenidine, octenidine hydrochloride]",antimicrobial efficacy relative to chlorhexidine,[2],3-10 times
same,contact dermatitis,[3],does not cause contact dermatitis
same,absorption through skin or mucous membranes,[4],not absorbed
same,cytotoxicity relative to chlorhexidine,[5],less cytotoxic than chlorhexidine
"C[N+](C)(C)C[C@H](O)CC(=O)[O-].O=C(O)/C=C/C(=O)O [carnitine fumarate, L-Carnitine fumarate]",homogenous solution or precipitation of octenidine,[6],resulted in the precipitation of octenidine
